≈ marks a conversion by molar mass, not a printed value.
How the values were obtained:
S. aureus ATCC6538P = assay: MIC assay; type: cell-based, Staphylococcus aureus; conditions: Staphylococcus aureus, ATCC6538P; two-fold serial dilutions in liquid media; n = 2–3
[1] = Cytotoxic assay (resazurin); conditions: human, HepG2 liver cells
P. aeruginosa ATCC9027 = assay: MIC assay; type: cell-based, Pseudomonas aeruginosa; conditions: Pseudomonas aeruginosa, ATCC9027; two-fold serial dilutions in liquid media; n = 2–3
[2] = Cytotoxic assay (resazurin); conditions: human, Caco-2
[3] = Cytotoxic assay (resazurin); conditions: human, HaCaT normal epidermal keratinocytes
M. smegmatis ATCC700084 = assay: MIC assay (REMA); type: cell-based, Mycobacterium smegmatis; conditions: Mycolicibacterium smegmatis, ATCC700084, REMA microdilution, n = 2–3
B. subtilis ATCC6633 = assay: MIC assay; type: cell-based, Bacillus subtilis; conditions: Bacillus subtilis, ATCC6633; two-fold serial dilutions in liquid media; n = 2–3
E. coli ATCC8739 = assay: MIC assay; type: cell-based, Escherichia coli; conditions: two-fold serial dilutions in liquid media, n = 2–3; for MIC: Escherichia coli, ATCC8739
[4] = Cytotoxic assay (resazurin); conditions: human, IMR-90 normal lung fibroblasts
[5] = tested on: human cells (A498, BEAS-2B, Caco-2, HaCaT, HepG2, IMR-90); assay: Cytotoxic assay, summary over the six human cell types; conditions: for Highest TI: highest CC50 on human cells divided by MIC on S. aureus; for Lowest TI: lowest CC50 on human cells divided by MIC on S. aureus
[6] = as above; conditions: human, 48 h exposure
C. albicans DSM10697 = assay: MIC assay; type: cell-based, Candida albicans; conditions: two-fold serial dilutions in liquid media, n = 2–3; for MIC: Candida albicans, DSM10697
[7] = Cytotoxic assay (resazurin); conditions: human, A498 kidney epithelial cells
[8] = Cytotoxic assay (resazurin); conditions: human, BEAS-2B normal lung epithelial cells
[9] = tested on: B. subtilis, S. aureus, E. coli, P. aeruginosa, M. smegmatis, C. albicans; assay: First MIC screening, summary over the species of Table 2; type: cell-based; conditions: discussion of the first screening
[10] = Highest CC50, highest of the six human cell types
[11] = Lowest CC50, lowest of the six human cell types
[12] = Mean CC50, mean over the six human cell types

Compound: Nc1ccc2c(c1)C(=O)/C(=C/c1cccc(OCc3ccccc3)c1)O2 [Compound 12, (Z)-5-amino-2-(3-(benzyloxy)benzylidene)benzofuran-3(2H)-one]
- MIC (S. aureus ATCC6538P): 100 µM (≈ 34.3 µg/mL)
- CC50 at 48 h [1]: 343 µM
- MIC (P. aeruginosa ATCC9027): > 100 µM
- CC50 at 48 h [2]: 112 µM
- CC50 at 48 h [3]: 51.3 µM
- MIC (M. smegmatis ATCC700084): 50 µM (≈ 17.2 µg/mL)
- MIC (B. subtilis ATCC6633): 25 µM (≈ 8.58 µg/mL)
- MIC (E. coli ATCC8739): > 100 µM
- MIC E. coli ATCC8739 (E. coli ATCC8739): inactive
- CC50 at 48 h [4]: 42.4 µM
- Highest TI [5]: 3.4
- Lowest TI [5]: 0.4
- CC50 at 48 h [6, 10]: 343 µM
- CC50 at 48 h [6, 11]: 42.4 µM
- CC50 at 48 h [6, 12]: 129 µM
- MIC (C. albicans DSM10697): > 100 µM
- MIC C. albicans DSM10697 (C. albicans DSM10697): inactive
- melting point: 132.6 °C
- CC50 at 48 h [7]: 152 µM
- CC50 at 48 h [8]: 74.6 µM

Compound: CC(=O)Nc1ccc2c(c1)C(=O)/C(=C/c1ccc(Oc3ccccc3)cc1)O2 [Compound 15, (Z)-N-(3-oxo-2-(4-phenoxybenzylidene)-2,3-dihydrobenzofuran-5-yl)acetamide]
- MIC (S. aureus ATCC6538P): 100 µM (≈ 37.1 µg/mL)
- CC50 at 48 h [1]: > 500 µM
- MIC (P. aeruginosa ATCC9027): > 100 µM
- CC50 at 48 h [2]: 137 µM
- CC50 at 48 h [3]: > 500 µM
- MIC (M. smegmatis ATCC700084): 50 µM (≈ 18.6 µg/mL)
- MIC (B. subtilis ATCC6633): 50 µM (≈ 18.6 µg/mL)
- MIC (E. coli ATCC8739): > 100 µM
- MIC E. coli ATCC8739 (E. coli ATCC8739): inactive
- CC50 at 48 h [4]: > 500 µM
- Highest TI [5]: >5
- Lowest TI [5]: 1.0
- CC50 at 48 h [6, 10]: > 500 µM
- CC50 at 48 h [6, 11]: 110 µM
- MIC (C. albicans DSM10697): > 100 µM
- MIC C. albicans DSM10697 (C. albicans DSM10697): inactive
- melting point: 213.5 °C
- CC50 at 48 h [7]: 146 µM
- CC50 at 48 h [8]: 110 µM

Compound: Nc1ccc2c(c1)C(=O)/C(=C/c1cccc(Oc3ccccc3)c1)O2 [Compound 16, (Z)-5-amino-2-(3-phenoxybenzylidene)benzofuran-3(2H)-one]
- MIC (S. aureus ATCC6538P): 25 µM (≈ 8.23 µg/mL)
- CC50 at 48 h [1]: 398 µM
- MIC (P. aeruginosa ATCC9027): > 100 µM
- CC50 at 48 h [2]: 132 µM
- CC50 at 48 h [3]: 80.4 µM
- MIC (M. smegmatis ATCC700084): 50 µM (≈ 16.5 µg/mL)
- MIC (B. subtilis ATCC6633): 25 µM (≈ 8.23 µg/mL)
- MIC (E. coli ATCC8739): 25 µM (≈ 8.23 µg/mL)
- CC50 at 48 h [4]: 116 µM
- Highest TI [5]: 18.0
- Lowest TI [5]: 3.2
- CC50 at 48 h [6, 10]: 452 µM
- CC50 at 48 h [6, 11]: 80.4 µM
- CC50 at 48 h [6, 12]: 218 µM
- MIC (C. albicans DSM10697): > 100 µM
- MIC C. albicans DSM10697 (C. albicans DSM10697): inactive
- melting point: 145.6 °C
- CC50 at 48 h [7]: 452 µM
- CC50 at 48 h [8]: 130 µM

Compound: CC(=O)Nc1ccc2c(c1)C(=O)/C(=C/c1ccccc1OC(C)C)O2 [Compound 18, (Z)-N-(2-(2-isopropoxybenzylidene)-3-oxo-2,3-dihydrobenzofuran-5-yl)acetamide]
- MIC (S. aureus ATCC6538P): > 100 µM
- activity against tested micro-organisms (in words) [9]: weak or no activity
- MIC (P. aeruginosa ATCC9027): > 100 µM
- MIC (M. smegmatis ATCC700084): > 100 µM
- MIC (B. subtilis ATCC6633): > 100 µM
- MIC (E. coli ATCC8739): > 100 µM
- MIC (C. albicans DSM10697): > 100 µM

Compound: CC(=O)Nc1ccc2c(c1)C(=O)/C(=C/c1cccc(OC(C)C)c1)O2 [Compound 19, (Z)-N-(2-(3-isopropoxybenzylidene)-3-oxo-2,3-dihydrobenzofuran-5-yl)acetamide]
- MIC (S. aureus ATCC6538P): > 100 µM
- activity against tested micro-organisms (in words) [9]: weak or no activity
- MIC (P. aeruginosa ATCC9027): 25 µM (≈ 8.43 µg/mL)
- MIC (M. smegmatis ATCC700084): > 100 µM
- MIC (B. subtilis ATCC6633): > 100 µM
- MIC (E. coli ATCC8739): > 100 µM
- MIC (C. albicans DSM10697): > 100 µM

Compound: CC(C)Oc1ccccc1/C=C1\Oc2ccc(N)cc2C1=O [Compound 21, (Z)-5-amino-2-(2-isopropoxybenzylidene)benzofuran-3(2H)-one]
- MIC (S. aureus ATCC6538P): > 100 µM
- activity against tested micro-organisms (in words) [9]: weak or no activity
- MIC (P. aeruginosa ATCC9027): > 100 µM
- MIC (M. smegmatis ATCC700084): > 100 µM
- MIC (B. subtilis ATCC6633): > 100 µM
- MIC (E. coli ATCC8739): > 100 µM
- MIC (C. albicans DSM10697): > 100 µM

Compound: CC(C)Oc1cccc(/C=C2\Oc3ccc(N)cc3C2=O)c1 [Compound 22, (Z)-5-amino-2-(3-isopropoxybenzylidene)benzofuran-3(2H)-one]
- MIC (S. aureus ATCC6538P): > 100 µM
- activity against tested micro-organisms (in words) [9]: weak or no activity
- MIC (P. aeruginosa ATCC9027): > 100 µM
- MIC (M. smegmatis ATCC700084): > 100 µM
- MIC (B. subtilis ATCC6633): > 100 µM
- MIC (E. coli ATCC8739): > 100 µM
- MIC (C. albicans DSM10697): > 100 µM
- melting point: 198.4 °C

Compound: CC(=O)Nc1ccc2c(c1)C(=O)/C(=C/c1cccc(C(F)(F)F)c1)O2 [Compound 29, (Z)-N-(3-oxo-2-(3-(trifluoromethyl)benzylidene)-2,3-dihydrobenzofuran-5-yl)acetamide]
- MIC (S. aureus ATCC6538P): > 100 µM
- MIC (P. aeruginosa ATCC9027): > 100 µM
- MIC (M. smegmatis ATCC700084): > 100 µM
- MIC (B. subtilis ATCC6633): > 100 µM
- MIC (E. coli ATCC8739): > 100 µM
- MIC (C. albicans DSM10697): > 100 µM
- melting point: 252.1 °C

Compound: Nc1ccc2c(c1)C(=O)/C(=C/c1cccc(C(F)(F)F)c1)O2 [Compound 30, (Z)-5-amino-2-(3-(trifluoromethyl)benzylidene)benzofuran-3(2H)-one]
- MIC (S. aureus ATCC6538P): > 100 µM
- MIC (P. aeruginosa ATCC9027): > 100 µM
- MIC (M. smegmatis ATCC700084): > 100 µM
- MIC (B. subtilis ATCC6633): > 100 µM
- MIC (E. coli ATCC8739): > 100 µM
- MIC (C. albicans DSM10697): > 100 µM
- melting point: > 350 °C
